Numbers after ± are expanded uncertainties.
Conditions: 293 K; 101.33 kPa; Crystal; X-ray diffraction

SMILES | mass density [kg/m3]
NCC1(CC(=O)O)CCCCC1.O [2-(1-(aminomethyl)cyclohexyl)acetic acid monohydrate] | 1210 ± 12
NCC1(CC(=O)O)CCCCC1 [2-(1-(aminomethyl)cyclohexyl)acetic acid] | 1239 ± 10

Source: the NIST ThermoML archive (doi:10.1016/j.jct.2017.05.041)
